Assay results: US8193167B2, “Pharmacologically active agents containing esterified phosphonates and methods for use thereof” (priority 2004, dated 2012)
Where a name gives a salt, the structure may show the parent alone. Read-outs that look alike come from different tables or passages of the source.

Assays:
[1] = test system: MCMV strain Smith; test: Plaque reduction assay for antiviral activity, MCMV in MEF cells; format: cell-based; conditions: read-out: MCMV EC50
[2] = test system: human foreskin fibroblast (HFF) cells
[3] = test system: HCMV strain AD-169; test: Plaque reduction assay for antiviral activity, HCMV in HFF cells; format: cell-based; conditions: read-out: HCMV EC50
[4] = test system: Cowpox Brighton; test: microbe, parasite or virus in culture; format: cell-based, cowpox virus (CV); conditions: read-out: Cowpox Brighton EC50
[5] = test system: Vaccinia Copenhagen; test: microbe, parasite or virus in culture; format: cell-based, vaccinia virus (VV); conditions: read-out: Vaccinia Copenhagen EC50
[6] = in vitro; conditions: human
[7] = HFF cells, 8-day incubation, value without SD = single determination

SMILES | EC50 ([1]; MEF cells, 7-day incubation) [µM] | CC50 [2] [µM] | EC50 [3, 7] [µM] | EC50 [4] [µM] | EC50 [5] [µM] | further results
CCCCCCCCCCCCCCCCCCCCOP1(=O)CO[C@@H](Cn2ccc(N)nc2=O)CO1 (some centres unmarked) [EC-cCDV, Eicosyl Cyclic Cidofovir] | 0.23 ± 0.01 | 86.1 | 0.011 |  |  | 
CCCCCCCCCCCCOP(=O)(O)CO[C@H](CO)Cn1ccc(N)nc1=O [DD-CDV, Dodecyl Cidofovir, Sodium Salt] | > 10 | > 100 | 0.31 ± 0.19 | > 20 | > 20 | 
CCCCCCCCCCCCCCCCCCCCCCOP1(=O)COC(Cn2ccc(N)nc2=O)CO1 (mixture of isomers) [DC-cCDV, Docosyl Cyclic Cidofovir] | 2.8 ± 1.7 | > 100 | 0.032 |  |  | 
CCCCCCCCCCCCCCCCCCCCCCOP(=O)(O)COC(CO)Cn1ccc(N)nc1=O (centres unmarked) [DC-CDV, Docosyl Cidofovir, Sodium Salt] | 0.85 ± 0.007 | 79.6 | 0.004 |  |  | 
CCCCCCCCCCCCCCCCCCCCCCCCOP(=O)(O)CO[C@H](CO)Cn1ccc(N)nc1=O [TC-CDV, Tetracosyl Cidofovir, Sodium Salt] | 7.45 ± 0.64 | > 100 | 0.006 | > 20 | > 17 | 
CCCCCCCCCCCCCCCCOP(=O)(O)COC(CO)Cn1ccc(N)nc1=O (centres unmarked) [HD-CDV, Hexadecyl Cidofovir, Sodium Salt] | 0.02 | > 157 | 0.005 | 6 ± 2 | 3.1 ± 0.1 | 
CCCCCCCCOP(=O)(O)CO[C@H](CO)Cn1ccc(N)nc1=O [O-CDV, Octyl Cidofovir, Sodium Salt] | > 10 | > 100 | 5.25 ± 5.7 | > 20 | > 20 | 
Nc1ccn(C[C@H]2COP(=O)(O)CO2)c(=O)n1 [cCDV, Cyclic Cidofovir, reference compound] |  |  |  |  |  | EC50 ([1]; 168 h, MEF cells, 7-day incubation): 0.23 ± 0.07 µM; EC50 ([3]; Human betaherpesvirus 5, AD169, 192 h, HFF cells, 8-day incubation, value without SD = single determination): 3.1 ± 1.8 µM; CC50 [6]: > 331 µM
CCCCCCCCCCCCCCCCCCCCCCCCOP1(=O)CO[C@@H](Cn2ccc(N)nc2=O)CO1 (some centres unmarked) [TC-cCDV, Tetracosyl Cyclic Cidofovir] | 2.3 ± 1.3 | > 100 | 0.32 |  |  | 
CCCCCCCCCCCCCCCCOP1(=O)COC(Cn2ccc(N)nc2=O)CO1 (mixture of isomers) [HD-cCDV, Hexadecyl Cyclic Cidofovir] | 0.13 ± 0.01 | 83 ± 20 | 3.1 ± 2.35 |  |  | 
CCCCCCCCCCCCCCCCCCCCOP(=O)(O)CO[C@H](CO)Cn1ccc(N)nc1=O [EC-CDV, Eicosyl Cidofovir, Sodium Salt] | 0.005 |  | 0.0007 | 1.5 ± 0.9 | 1.6 ± 1.3 | 
Nc1ccn(C[C@@H](CO)OCP(=O)(O)O)c(=O)n1 [CDV, Cidofovir, reference compound] |  |  |  |  |  | EC50 ([4]; Cowpox virus, HFF): 42 ± 5.4 µM; EC50 ([1]; MEF, 168 h): 0.04 ± 0.03 µM; EC50 ([3]; Human betaherpesvirus 5, AD169, HFF, 192 h): 1.2 ± 0.43 µM; EC50 ([5]; Orthopoxvirus vaccinia, HFF): 31 ± 5.4 µM; CC50 [6]: > 317 µM
